Test results as given in paper PMC12631437, “Evaluation of the Activity of 4‑Quinolones against Multi-Life Stages of Plasmodium spp” (ACS Omega, 2025).

Tests used:
[1] = test system: late-stage gametocytes (IV and V) of P. falciparum NF54; assay: Late-stage gametocyte bioluminescence assay, luciferase-expressing NF54; assay type: cell-based, Plasmodium falciparum; details: for Pf gametocytes inhibition: 1 μM; for inhibition at 20 µM: Plasmodium falciparum, NF54, 48 h, read-out: Pf gametocytes Inhibition (%)
Procedure: For the in vitro culture of sexual stages of P. falciparum NF54 Luminescent strain, the Tripathi protocol was followed.
Parasite asexual stages were synchronized, and ring-stage parasites were incubated with a parasite-conditioned medium to induce stress and trigger gametocyte induction. After sexually committed parasites invaded new erythrocytes, N-acetylglucosamine was added to prevent further invasion and clear residual asexual parasites.
When a predominance of late stage (IV and V) gametocytes was identified and counted together, , the MACS magnetic system was used for gametocyte enrichment, as previously described. ,
The column content was eluted with RPMI medium into a 15 mL Falcon tube until translucent medium appeared, yielding ∼ 10 mL of eluate. The sample was centrifuged at 1500 rpm for 5 min at 37 °C, the supernatant discarded, and the pellet washed with preheated RPMI medium containing albumax. A 1 μL pellet sample was used to prepare a Giemsa-stained smear for gametocytaemia determination by counting 2000 cells. The gametocytemia for each assay were 71%, 64% and 31%. The remaining pellet was adjusted to 1 mL with RPMI medium containing 10% human serum at 37 °C. Total cell counts were performed using a Neubauer chamber with a 10X diluted sample.
Each well contained 200,000 gametocytes in 150 μL without erythrocytes. After 48 h of incubation, a luciferase kit (Promega) was used to reveal the assay. Eighty microliters of supernatant were discarded, and the pellet was homogenized in the remaining content. Forty microliters of the sample were transferred to a clear 96-well plate containing lysis solution (1X), gently mixed, and moved to a white-bottomed 96-well plate. Luciferase (40 μL) was added, and luminescence was measured using a microplate reader with a 10-s integration time.

P. vivax ookinetes = assay: Ex vivo P. vivax ookinete formation assay with patient isolates; assay type: cell-based, Plasmodium vivax; details: 24 h
Procedure: Participants were recruited from patients diagnosed with P. vivax malaria via Giemsa-stained blood smears at CEPEM in Porto Velho, Rondônia, Brazil (#28176720.9.0000.0011). Criteria included: P. vivax parasitemia >2000 parasites/μL, age 18–85, no severe malaria, no concomitant diseases, nonpregnant, and consent to study procedures. Approximately 10 mL of venous blood was collected into heparin-coated vials, maintained at 37 °C, and transported to PIVEM for DMFA. Malaria treatment followed Brazilian Ministry of Health guidelines and was unaffected by study participation. […] Erythrocytes were washed with incomplete RPMI-1640 medium by centrifugation at 1500 rpm for 10 min to remove leukocytes. […] The sample was centrifuged once at 450 g for 15 min without a brake. After centrifugation, the pellet remaining at the interface was collected and washed twice at 2000 g for 5 min. […] The parasites were incubated for 24 h at a temperature of 21–24 °C. After this period, the activity of the compounds was determined by microscopy, counting 100 fields to determine the parasitemia per μL in each sample, and counting the mature and immature ookinetes. […] Red blood cells were then washed with incomplete RPMI-1640 medium through centrifugation at 1500 rpm for 10 min to remove leukocytes. […] The sample was centrifuged once at 2000 rpm for 15 min without brake. After centrifugation, the remaining pellet at the interface was collected and washed twice at 2000 rpm for 5 min. […] Parasites were incubated for 24 h at a temperature of 21–24 °C. After this period, compound activity was determined by microscopy counting in 100 fields to determine parasitemia per μL in each sample.

[2] = test system: P. vivax oocysts and sporozoites in Anopheles darlingi; assay: Direct membrane feeding assay (DMFA), P. vivax gametocytes, A. darlingi mosquitoes; assay type: in vivo, Plasmodium vivax; details: for reduction of the density of sporozoites per mosquito: 14 days after feeding; for reduction in the oocyst density per mosquito midgut: day 7
Procedure: Participants were recruited from patients diagnosed with P. vivax malaria via Giemsa-stained blood smears at CEPEM in Porto Velho, Rondônia, Brazil (#28176720.9.0000.0011). Criteria included: P. vivax parasitemia >2000 parasites/μL, age 18–85, no severe malaria, no concomitant diseases, nonpregnant, and consent to study procedures. Approximately 10 mL of venous blood was collected into heparin-coated vials, maintained at 37 °C, and transported to PIVEM for DMFA. Malaria treatment followed Brazilian Ministry of Health guidelines and was unaffected by study participation.
Anopheles darlingi mosquitoes are maintained in the PIVEM insectary at Fiocruz Rondônia since 2018. Mosquitoes were raised at a temperature of 26 °C ± 1 °C and a relative humidity of 70 ± 10%, being fed a 15% honey solution.
Before the DMFA, female mosquitoes were starved of sucrose overnight. Six P. vivax isolates were used, and 40–100 mosquitoes per group were fed P. vivax-infected blood for 30 min using a Hemotek membrane feeder at 37 °C. Unfed mosquitoes were removed, and engorged ones were maintained for sporogony, receiving a 15% honey solution refreshed every 2 days. Midguts were dissected on day 7 and salivary glands on day 14 postblood feeding, to assess midgut oocyst load and salivary gland sporozoite load, respectively.
Mosquitoes were anesthetized on ice, immersed in 70% ethanol, and dissected in PBS. Midguts were stained with 0.2% mercurochrome and examined microscopically for oocysts. Salivary glands were pooled (5 mosquitoes per sample), and homogenized in 15 μL RPMI, and sporozoites were counted using a Neubauer chamber.

Huh-7 cells = assay: Alamar Blue cell confluency (cytotoxicity) in Huh-7 cells; assay type: cell-based
Procedure: For compound dilution, a medium containing 1:1000 gentamicin (G) and 1:300 fungizone (F) was used. Cells were seeded at 1 × 10^4 cells/well in 96-well plates and incubated at 37 °C with 5% CO2. After 24 h, compounds were diluted in RPMI+F+G, and after removal of the culture medium, added to the cells in triplicate. […] Following incubation for 1 h at 37 °C, 5% CO2, the cells were infected with luciferase-expressing P. berghei sporozoites (4,000 parasites per well) freshly extracted from the salivary glands of infected mosquitoes reared at the GIMM insectarium. The viability of Huh-7 cells exposed to the compounds was assessed 46 h later by the AlamarBlue assay (Invitrogen, UK) measurement, and parasite burden was measured 48 h after sporozoite addition using a bioluminescence assay (Biotium). IC50 values were calculated using GraphPad Prism through nonlinear regression analysis of normalized dose–response curves.
On the first day of the assay, the compounds were diluted at 10 and 1 μM in cRPMI medium supplemented with fungizone. and gentamicin. The culture medium of Huh-7 cells was removed and replaced with compound dilutions in triplicate. As a control, a DMSO dilution mimicking the highest compound concentration used was included. The cells were incubated for 1 h at 37 °C in a 5% CO2 atmosphere.
On the second day of the assay, compound toxicity was assessed by measuring cell confluency using the Alamar Blue/CellTiter Blue reagent. First, reagent aliquots stored at −20 °C were thawed and diluted at a 1:20 ratio in cRPMI. The culture medium was removed and replaced with 80 μL of the solution per well, followed by incubation at 37 °C and 5% CO2 for 1 h and 30 min. Fluorescence was measured using a plate reader with the Tecan i-Control software.

[3] = 20 μM, 48 h, late-stage (IV and V) gametocytes
[4] = Plasmodium vivax, read-out: P. vivax ookinete formation inhibition (median)

Row | SMILES | Pf gametocytes inhibition [1] | inhibition at 20 µM [1, 3] | inhibition at 0.4 µM (P. vivax ookinetes; Plasmodium vivax, 0.4 μM, read-out: P. vivax ookinete formation inhibition (median)) | inhibition at 2 µM (P. vivax ookinetes; [4]) | inhibition at 10 µM (P. vivax ookinetes; Plasmodium vivax, 10 μM, n = 6 patients, read-out: P. vivax ookinete formation inhibition (median)) | reduction of infection prevalence ([2]; 2 μM) | reduction of the density of sporozoites per mosquito ([2]; 2 μM) | reduction in the oocyst density per mosquito midgut ([2]; 2 μM) | reduction of infection prevalence ([2]; 10 μM) | reduction in the oocyst density per mosquito midgut ([2]; 10 μM) | Confluency % (Huh-7 cells; 1 μM) | Confluency % (Huh-7 cells; 10 μM) | Pf gametocytes Inhibition (%) [1, 3] | P. vivax ookinete formation inhibition (median) (P. vivax ookinetes; 0.4 μM) | reduction of the density of sporozoites per mosquito ([2]; 10 μM)
1 | CCCCCCCCCCCc1cc(=O)c2ccccc2[nH]1 [compound 1, 2-Undecilquinolin-4(1H)-one] | no activity | 44 ± 4% | 70% | 84% | 97% | 31% | 39% | 74% | 71% | 95% | 97 ± 6% | 79 ± 2% |  |  | 
2 | CCCCCCOc1ccc(-c2cc(=O)c3ccccc3[nH]2)cc1 [compound 6, 2-(4-(Hexyloxy)-phenyl)-quinolin-4(1H)-one] | no activity | 64% |  | 83% |  |  | 31% | 29% |  | 53% | 105 ± 3% | 102 ± 11% | 68 ± 25% | no activity | 10%
